# Assay results: patent US20260176320A1, “MODULATORS OF G-PROTEIN COUPLED RECEPTORS” (priority 2018, published 2026)
# Read-outs that look alike come from different tables or passages of the source.
# Assays:
# [1] = biological target: GLP-1R (Homo sapiens, UniProt P43220); assay: HitHunter cAMP assay (GLP-1R); assay type: cell-based; details: cAMP; for Emax: read-out: (Emax) GLP-1R
# How it was run: (§1)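 Suspension cells expressing each receptor (10,000 per well) in HBSS with 10 mM HEPES, 625 μM IBMX and 0.2% BSA were treated with a 22-point 2-fold agonist series in duplicate for 30 minutes at room temperature. cAMP was detected by antibody immunocompetition with luminescence read after overnight incubation.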
# [2] = biological target: T1, GIP-R (Homo sapiens, UniProt P48546); assay: HitHunter cAMP assay (GIP-R); assay type: cell-based; details: cAMP; for Emax: read-out: (Emax) GIP-R
# T1 sequence (P48546 22-466): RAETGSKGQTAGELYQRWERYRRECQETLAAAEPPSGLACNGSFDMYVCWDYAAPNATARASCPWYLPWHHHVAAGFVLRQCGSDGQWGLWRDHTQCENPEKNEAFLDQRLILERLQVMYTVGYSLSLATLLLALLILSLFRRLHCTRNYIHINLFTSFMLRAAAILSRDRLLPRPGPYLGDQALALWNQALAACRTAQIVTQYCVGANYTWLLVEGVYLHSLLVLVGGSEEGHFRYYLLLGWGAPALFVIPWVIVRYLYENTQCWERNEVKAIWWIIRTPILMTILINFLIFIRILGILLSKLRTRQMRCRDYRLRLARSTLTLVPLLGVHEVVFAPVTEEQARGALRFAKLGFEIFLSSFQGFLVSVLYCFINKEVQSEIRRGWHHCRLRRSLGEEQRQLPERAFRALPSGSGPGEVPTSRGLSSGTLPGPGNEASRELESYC
# How it was run: as §1
# [3] = Table 3A, read-out: EC50 GLP-1R/nM
# [4] = Table 3A, read-out: EC50 GIP-R/nM
# GLP-1R, sequence (P43220 24-463): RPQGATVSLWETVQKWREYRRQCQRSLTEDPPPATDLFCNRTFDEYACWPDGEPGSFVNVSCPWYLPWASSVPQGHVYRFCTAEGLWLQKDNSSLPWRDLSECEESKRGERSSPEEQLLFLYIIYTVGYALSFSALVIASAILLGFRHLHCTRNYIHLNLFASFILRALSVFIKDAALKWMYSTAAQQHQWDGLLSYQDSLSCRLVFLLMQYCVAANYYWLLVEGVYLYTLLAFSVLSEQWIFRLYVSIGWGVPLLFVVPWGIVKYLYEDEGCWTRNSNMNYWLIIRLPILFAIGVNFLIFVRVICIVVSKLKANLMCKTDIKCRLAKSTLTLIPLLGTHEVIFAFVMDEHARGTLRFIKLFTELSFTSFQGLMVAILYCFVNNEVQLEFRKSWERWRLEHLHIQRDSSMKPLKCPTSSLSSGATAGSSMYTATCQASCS
SMILES,"EC50 ([1]; EC50 GLP-1R/nM, Table 3) [nM]","EC50 ([1]; EC50 GLP-1R/nM, Table 3A) [nM]",Emax ([1]; Table 3) [%],Emax ([1]; Table 3A) [%],"EC50 ([2]; EC50 GIP-R/nM, Table 3) [nM]","EC50 ([2]; EC50 GIP-R/nM, Table 3A) [nM]",Emax ([2]; Table 3) [%],Emax ([2]; Table 3A) [%],"EC50 [1, 3] [nM]","EC50 [2, 4] [nM]","EC50 ([1]; Table 3, read-out: EC50 GLP-1R/nM) [nM]","EC50 ([2]; Table 3, read-out: EC50 GIP-R/nM) [nM]","Emax at 1 µM ([2]; read-out: (Emax) GIP-R at 1 μM, Table 3, at 1 μM) [%]"
CCCCCCCCCCCCCCCC(=O)N[C@@H](CCC(=O)NCCCC[C@H](NC(=O)[C@H](CO)NC(=O)[C@@H]1CCCN1C(=O)[C@@H]1CCCN1C(=O)[C@@H]1CCCN1C(=O)[C@H](C)NC(=O)CNC(=O)[C@H](CO)NC(=O)[C@H](CO)NC(=O)[C@@H]1CCCN1C(=O)CNC(=O)CNC(=O)[C@H](C)NC(=O)[C@H](CC(C)C)NC(=O)[C@H](CC(C)C)NC(=O)[C@H](Cc1c[nH]c2ccccc12)NC(=O)[C@H](CC(N)=O)NC(=O)[C@@H](NC(=O)[C@H](Cc1ccccc1)NC(=O)[C@H](CCC(=O)O)NC(=O)C(C)(C)NC(=O)[C@H](C)NC(=O)[C@H](C)NC(=O)[C@H](CCC(N)=O)NC(=O)[C@H](CCCCN)NC(=O)[C@H](CC(=O)O)NC(=O)[C@H](CC(C)C)NC(=O)[C@H](Cc1ccc(O)cc1)NC(=O)[C@@H](NC(=O)[C@H](CO)NC(=O)[C@H](Cc1ccc(O)cc1)NC(=O)[C@H](CC(=O)O)NC(=O)[C@H](CO)NC(=O)[C@@H](NC(=O)[C@H](Cc1ccccc1)NC(=O)[C@@H](NC(=O)CNC(=O)[C@H](CCC(=O)O)NC(=O)CSCC(=O)NCCN1C(=O)C[C@H](OC)C1=O)[C@@H](C)O)[C@@H](C)O)[C@@H](C)CC)C(C)C)C(N)=O)C(=O)O [Compound 49],0.1 to 1,0.1 to 1,101,101,0.1 to 1,0.1 to 1,48,48,,,,,
CCCCCCCCCCCCCCCC(=O)N[C@@H](CCC(=O)NCCCC[C@H](NC(=O)[C@H](CO)NC(=O)[C@@H]1CCCN1C(=O)[C@@H]1CCCN1C(=O)[C@@H]1CCCN1C(=O)[C@H](C)NC(=O)CNC(=O)[C@H](CO)NC(=O)[C@H](CO)NC(=O)[C@@H]1CCCN1C(=O)CNC(=O)CNC(=O)[C@H](C)NC(=O)[C@H](CC(C)C)NC(=O)[C@H](CC(C)C)NC(=O)[C@H](Cc1c[nH]c2ccccc12)NC(=O)[C@H](CC(N)=O)NC(=O)[C@@H](NC(=O)[C@H](Cc1ccccc1)NC(=O)[C@H](CCC(=O)O)NC(=O)C(C)(C)NC(=O)[C@H](C)NC(=O)[C@H](C)NC(=O)[C@H](CCC(N)=O)NC(=O)[C@H](CCCCN)NC(=O)[C@H](CC(=O)O)NC(=O)[C@H](CC(C)C)NC(=O)[C@H](Cc1ccc(O)cc1)NC(=O)[C@@H](NC(=O)[C@H](CO)NC(=O)[C@H](Cc1ccc(O)cc1)NC(=O)[C@H](CC(=O)O)NC(=O)[C@H](CO)NC(=O)[C@@H](NC(=O)[C@H](Cc1ccccc1)NC(=O)[C@@H](NC(=O)CNC(=O)[C@H](CCCC(=O)O)NC(=O)CSCC(=O)NCCN1CCCCC1=O)[C@@H](C)O)[C@@H](C)O)[C@@H](C)CC)C(C)C)C(N)=O)C(=O)O [Compound 219],,,,89,,,,75,10 to 100,1 to 10,,,
CCCCCCCCCCCCCCCC(=O)N[C@@H](CCC(=O)NCCCC[C@H](NC(=O)[C@H](CO)NC(=O)[C@@H]1CCCN1C(=O)[C@@H]1CCCN1C(=O)[C@@H]1CCCN1C(=O)[C@H](C)NC(=O)CNC(=O)[C@H](CO)NC(=O)[C@H](CO)NC(=O)[C@@H]1CCCN1C(=O)CNC(=O)CNC(=O)[C@H](C)NC(=O)[C@H](CC(C)C)NC(=O)[C@H](CC(C)C)NC(=O)[C@H](Cc1c[nH]c2ccccc12)NC(=O)[C@H](CC(N)=O)NC(=O)[C@@H](NC(=O)[C@H](Cc1ccccc1)NC(=O)[C@H](CCC(=O)O)NC(=O)C(C)(C)NC(=O)[C@H](C)NC(=O)[C@H](C)NC(=O)[C@H](CCC(N)=O)NC(=O)[C@H](CCCCN)NC(=O)[C@H](CC(=O)O)NC(=O)[C@H](CC(C)C)NC(=O)[C@H](Cc1ccc(O)cc1)NC(=O)[C@@H](NC(=O)[C@H](CO)NC(=O)[C@H](Cc1ccc(O)cc1)NC(=O)[C@H](CC(=O)O)NC(=O)[C@H](CO)NC(=O)[C@@H](NC(=O)[C@H](Cc1ccccc1)NC(=O)[C@@H](NC(=O)CNC(=O)[C@H](CCC(=O)O)NC(=O)CSCC(=O)NCCN1C(=O)C[C@@H](C)C1=O)[C@@H](C)O)[C@@H](C)O)[C@@H](C)CC)C(C)C)C(N)=O)C(=O)O [Compound 89],1 to 10,1 to 10,108,108,0.1 to 1,0.1 to 1,81,81,,,,,
CCCCCCCCCCCCCCCC(=O)N[C@@H](CCC(=O)NCCCC[C@H](NC(=O)[C@H](CO)NC(=O)[C@@H]1CCCN1C(=O)[C@@H]1CCCN1C(=O)[C@@H]1CCCN1C(=O)[C@H](C)NC(=O)CNC(=O)[C@H](CO)NC(=O)[C@H](CO)NC(=O)[C@@H]1CCCN1C(=O)CNC(=O)CNC(=O)[C@H](C)NC(=O)[C@H](CC(C)C)NC(=O)[C@H](CC(C)C)NC(=O)[C@H](Cc1c[nH]c2ccccc12)NC(=O)[C@H](CC(N)=O)NC(=O)[C@@H](NC(=O)[C@H](Cc1ccccc1)NC(=O)[C@H](CCC(=O)O)NC(=O)C(C)(C)NC(=O)[C@H](C)NC(=O)[C@H](C)NC(=O)[C@H](CCC(N)=O)NC(=O)[C@H](CCCCN)NC(=O)[C@H](CC(=O)O)NC(=O)[C@H](CC(C)C)NC(=O)[C@H](Cc1ccc(O)cc1)NC(=O)[C@@H](NC(=O)[C@H](CO)NC(=O)[C@H](Cc1ccc(O)cc1)NC(=O)[C@H](CC(=O)O)NC(=O)[C@H](CO)NC(=O)[C@@H](NC(=O)[C@H](Cc1ccccc1)NC(=O)[C@@H](NC(=O)CNC(=O)[C@H](CCC(=O)O)NC(=O)CSCC(=O)NCCN1C(=O)CSC1=O)[C@@H](C)O)[C@@H](C)O)[C@@H](C)CC)C(C)C)C(=O)O)C(=O)O [Compound 199],,,,92,,,,78,0.1 to 1,1 to 10,,,
CC[C@H](C)[C@H](NC(=O)[C@H](CO)NC(=O)[C@H](Cc1ccc(O)cc1)NC(=O)[C@H](CC(=O)O)NC(=O)[C@H](CO)NC(=O)[C@@H](NC(=O)[C@H](Cc1ccccc1)NC(=O)[C@@H](NC(=O)CNC(=O)[C@H](CCC(=O)O)NC(=O)CS(=O)(=O)CC(=O)NCCN1C(=O)CSC1=O)[C@@H](C)O)[C@@H](C)O)C(=O)N[C@@H](Cc1ccc(O)cc1)C(=O)N[C@@H](CC(C)C)C(=O)N[C@@H](CC(=O)O)C(=O)N[C@@H](CCCCN)C(=O)N[C@@H](CCC(N)=O)C(=O)N[C@@H](C)C(=O)N[C@@H](C)C(=O)NC(C)(C)C(=O)N[C@@H](CCC(=O)O)C(=O)N[C@@H](Cc1ccccc1)C(=O)N[C@H](C(=O)N[C@@H](CC(N)=O)C(=O)N[C@@H](Cc1c[nH]c2ccccc12)C(=O)N[C@@H](CC(C)C)C(=O)N[C@@H](CC(C)C)C(=O)N[C@@H](C)C(=O)NCC(=O)NCC(=O)N1CCC[C@H]1C(=O)N[C@@H](CO)C(=O)N[C@@H](CO)C(=O)NCC(=O)N[C@@H](C)C(=O)N1CCC[C@H]1C(=O)N1CCC[C@H]1C(=O)N1CCC[C@H]1C(=O)N[C@@H](CO)C(=O)N[C@@H](CCCCN)C(N)=O)C(C)C [Compound 168],,,92,92,,,,,1 to 10,> 1000,1 to 10,> 1000,6 to 14
CCCCCCCCCCCCCCCC(=O)N[C@@H](CCC(=O)NCCCC[C@H](NC(=O)[C@H](CO)NC(=O)[C@@H]1CCCN1C(=O)[C@@H]1CCCN1C(=O)[C@@H]1CCCN1C(=O)[C@H](C)NC(=O)CNC(=O)[C@H](CO)NC(=O)[C@H](CO)NC(=O)[C@@H]1CCCN1C(=O)CNC(=O)CNC(=O)[C@H](C)NC(=O)[C@H](CC(C)C)NC(=O)[C@H](CC(C)C)NC(=O)[C@H](Cc1c[nH]c2ccccc12)NC(=O)[C@H](CC(N)=O)NC(=O)[C@@H](NC(=O)[C@H](Cc1ccccc1)NC(=O)[C@H](CCC(=O)O)NC(=O)C(C)(C)NC(=O)[C@H](C)NC(=O)[C@H](C)NC(=O)[C@H](CCC(N)=O)NC(=O)[C@H](CCCCN)NC(=O)[C@H](CC(=O)O)NC(=O)[C@H](CC(C)C)NC(=O)[C@H](Cc1ccc(O)cc1)NC(=O)[C@@H](NC(=O)[C@H](CO)NC(=O)[C@H](Cc1ccc(O)cc1)NC(=O)[C@H](CC(=O)O)NC(=O)[C@H](CO)NC(=O)[C@@H](NC(=O)[C@H](Cc1ccccc1)NC(=O)[C@@H](NC(=O)CNC(=O)[C@H](CCC(=O)O)NC(=O)C(C)(C)C(=O)NCCn1ccccc1=O)[C@@H](C)O)[C@@H](C)O)[C@@H](C)CC)C(C)C)C(N)=O)C(=O)O [Compound 254],,,,,,,,80,< 0.1,1 to 10,,,
